Among the data in ChEMBL document CHEMBL3044944, “Synthesis and evaluation of meta substituted 1-(aryloxypropyl)-4-(chloroaryl) piperazines as potential atypical antipsychotics” (2013) are Activity, logED50 and ED50 values, retold here.

Each structure is given as a SMILES string. Calls of active or inactive are those of the source. The rule behind the calls is not given here.

Test [1] deals with Mus musculus. The test can be described thus: Antipsychotic activity in Mus musculus albino lyka (mouse) assessed as reversal of apomorphine-induced stereotypy at 5 to 10 mg/kg, ip administered 10 min prior to apomorphine challenge measured after 10 to 30 min. It is filed as functional, organism-based.
The test system of test [2] is Mus musculus. The test can be described thus: Antipsychotic activity in ip dosed Mus musculus albino lyka (mouse) assessed as reversal of apomorphine-induced mesh climbing administered 10 min prior to apomorphine challenge measured after 10 to 30 min. It is filed as functional. The settings on record: for ED50: Mus musculus, albino lyka, ip.
Test [3] relates to Mus musculus. The test can be described thus: Antipsychotic activity in Mus musculus albino lyka (mouse) assessed as reversal of apomorphine-induced mesh climbing at 5 to 10 mg/kg, ip administered 10 min prior to apomorphine challenge measured after 10 to 30 min. The format is functional, organism-based.

One may read the ED50 as the dose that gives a 50% effect, or the effect in half of the subjects. Consider `CC(=O)c1cccc(OCCCN2CCN(Cc3ccccc3Cl)CC2)c1`, for which, in the test with Mus musculus [1], the outcome was inactive. In the test on Mus musculus [2], the logED50 was 0.903 and the ED50 amounted to 8 mg/kg.
Turning to `O=Cc1cccc(OCCCN2CCN(Cc3ccc(Cl)cc3)CC2)c1`, in the test with Mus musculus [1], the outcome was Active. Further, in the test on Mus musculus [2], the logED50 stood at 1 and the ED50 amounted to 10 mg/kg.
As to `CC(=O)c1cccc(OCCCN2CCN(Cc3ccc(Cl)cc3)CC2)c1`, the outcome in the test on Mus musculus [1] was inactive. Besides, in the test on Mus musculus [2], the logED50 is 0.857 and the ED50 amounted to 7.2 mg/kg.
Regarding `O=Cc1cccc(OCCCN2CCN(C(=O)c3ccccc3Cl)CC2)c1`, in the test on Mus musculus [3], the outcome was inactive. Further, the result in the test with Mus musculus [1] was Active.
Taken in the same sequence, the figures for `CC(=O)c1cccc(OCCCN2CCN(C(=O)c3ccc(Cl)cc3)CC2)c1` were “inactive” and “Active”.
`O=Cc1cccc(OCCCN2CCN(C(=O)c3ccc(Cl)cc3)CC2)c1`: in the test on Mus musculus [3], the result was inactive. In addition, the outcome in the test on Mus musculus [1] was Active.
Turning to `O=Cc1cccc(OCCCN2CCN(Cc3ccccc3Cl)CC2)c1`, the result with Mus musculus [1] was inactive. In the test on Mus musculus [2], the logED50 worked out at 0.799 and the ED50 turned out to be 6.3 mg/kg.
As for `CC(=O)c1cccc(OCCCN2CCN(C(=O)c3ccccc3Cl)CC2)c1`, the outcome in the test with Mus musculus [3] was inactive. Further, in the test on Mus musculus [1], the result was Active.
